According to patent publication US20090069373A1, “Quinoline Acids” (Wyeth, priority 2007, published 2009):

Assays:
human LXRβ = target: T1, human LXRβ (Homo sapiens, UniProt P55055); assay: Ligand-binding test procedure for human LXRβ (3H T0901317 competition, flash plates); settings: for Binding ratio a/b: IC50 (μM) LXRα binding/IC50 (μM) LXRβ binding; for IC50: biotinylated hLXRβ, tracer 3H T0901317
T1 construct: biotin (biotinylated; biotinylation tag not described); made in house; host or cells: E. coli
T1 sequence (P55055 1-460): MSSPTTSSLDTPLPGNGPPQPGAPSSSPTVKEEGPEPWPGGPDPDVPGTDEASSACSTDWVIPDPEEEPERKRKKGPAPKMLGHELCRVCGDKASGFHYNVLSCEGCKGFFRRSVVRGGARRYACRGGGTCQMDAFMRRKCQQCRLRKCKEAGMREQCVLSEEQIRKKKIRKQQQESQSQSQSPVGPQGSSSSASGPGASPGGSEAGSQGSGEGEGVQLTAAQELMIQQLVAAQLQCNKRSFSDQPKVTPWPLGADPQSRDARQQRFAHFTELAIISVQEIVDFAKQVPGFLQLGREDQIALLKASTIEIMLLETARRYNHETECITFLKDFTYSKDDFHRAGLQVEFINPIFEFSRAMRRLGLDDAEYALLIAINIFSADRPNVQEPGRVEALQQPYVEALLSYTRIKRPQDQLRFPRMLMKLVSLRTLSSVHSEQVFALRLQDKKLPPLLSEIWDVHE

human LXRα = target: T2, human LXRα (Homo sapiens, UniProt Q13133); assay: Ligand-binding test procedure for human LXRα (3H T0901317 competition, flash plates); settings: biotinylated hLXRα, tracer 3H T0901317
T2 construct: biotin (biotinylated; biotinylation tag not described); made in house; host or cells: E. coli
T2 sequence (Q13133 1-447): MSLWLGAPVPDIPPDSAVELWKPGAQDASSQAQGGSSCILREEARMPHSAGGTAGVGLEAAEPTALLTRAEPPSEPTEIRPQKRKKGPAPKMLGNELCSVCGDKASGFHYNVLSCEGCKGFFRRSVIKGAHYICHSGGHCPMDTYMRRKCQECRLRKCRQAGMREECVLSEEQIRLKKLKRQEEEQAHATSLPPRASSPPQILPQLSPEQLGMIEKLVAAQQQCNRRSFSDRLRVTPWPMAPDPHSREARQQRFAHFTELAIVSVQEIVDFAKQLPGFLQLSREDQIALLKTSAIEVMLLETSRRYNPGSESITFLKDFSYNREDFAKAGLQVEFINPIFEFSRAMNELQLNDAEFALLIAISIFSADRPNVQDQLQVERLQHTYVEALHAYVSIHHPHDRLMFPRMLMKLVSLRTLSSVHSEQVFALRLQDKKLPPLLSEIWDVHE
Procedure, shortened: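 Competition binding of test ligands against 5 nM ³H tracer solution (pre-mix concentration) on biotinylated hLXRα from E. coli extract, captured on streptavidin flash plates (Bmax ~4000 cpm). Ligand dilution series made in DMSO. Incubated overnight at +4 °C; bound radioactivity counted after washing.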

SMILES | Binding ratio a/b (human LXRβ) | IC50 (human LXRβ) [nM] | IC50 (human LXRα) [nM]
Cc1c(NCc2cccc(-c3c(Cc4ccccc4)cnc4c(C(F)(F)F)cccc34)c2)ccc(C(=O)O)c1C [Example 103, 4-({3-[3-benzyl-8-(trifluoromethyl)quinolin-4-yl]benzyl}amino)-2,3-dimethylbenzoic acid] | 2 | 3300 | 5040
O=C(O)C1CCN(C(=O)c2cccc(COc3cccc(-c4c(Cc5ccccc5)cnc5c(C(F)(F)F)cccc45)c3)c2)CC1 [Example 40, 1-[3-({3-[3-benzyl-8-(trifluoromethyl)quinolin-4-yl]phenoxy}methyl)benzoyl]piperidine-4-carboxylic acid] | 7 | 84 | 559
Cc1cnc2c(C(F)(F)F)cccc2c1-c1cccc(CNc2ccc(C(=O)O)c(Cl)c2)c1 [Example 73, 2-chloro-4-({3-[3-methyl-8-(trifluoromethyl)quinolin-4-yl]benzyl}amino)benzoic acid] | 3 | 183 | 613
O=C(O)c1cnc(Oc2cccc(-c3c(Cc4ccccc4)cnc4c(C(F)(F)F)cccc34)c2)cn1 [Example 121, 5-{3-[3-Benzyl-8-(trifluoromethyl)quinolin-4-yl]phenoxy}pyrazine-2-carboxylic acid] | 1 | 2300 | 1710
O=C(O)Cc1cccc2cc(OCc3cccc(-c4ccnc5c(C(F)(F)F)cccc45)c3)ccc12 [Example 68, [6-({3-[8-(trifluoromethyl)quinolin-4-yl]benzyl}oxy)-1-naphthyl]acetic acid] | 4 | 535 | 2290
O=C(O)c1ccc(COc2cccc(-c3c(Cc4ccccc4)cnc4c(C(F)(F)F)cccc34)c2)c(Cl)c1 [Example 113, 4-({3-[3-benzyl-8-(trifluoromethyl)quinolin-4-yl]phenoxy}methyl)-3-chlorobenzoic acid] | 1 | 1560 | 1720
Cc1cc(C(=O)O)ccc1NCc1cccc(-c2c(Cc3ccccc3)cnc3c(C(F)(F)F)cccc23)c1 [Example 53, 4-({3-[3-benzyl-8-(trifluoromethyl)quinolin-4-yl]benzyl}amino)-3-methylbenzoic acid] | 5 | 95 | 510
Cc1cc(C(=O)O)ccc1C#Cc1cccc(-c2c(Cc3ccccc3)cnc3c(C(F)(F)F)cccc23)c1 [Example 128, 4-({3-[3-Benzyl-8-(trifluoromethyl)quinolin-4-yl]phenyl}ethynyl)-3-methylbenzoic acid] | 7 | 19 | 137
O=C(O)c1c[nH]c2ccc(NCc3cccc(-c4c(Cc5ccccc5)cnc5c(C(F)(F)F)cccc45)c3)cc12 [Example 99, 5-({3-[3-benzyl-8-(trifluoromethyl)quinolin-4-yl]benzyl}amino)-1H-indole-3-carboxylic acid] | 2 | 620 | 1240
Cn1cc(C(=O)O)c2cc(NCc3cccc(-c4c(Cc5ccccc5)cnc5c(C(F)(F)F)cccc45)c3)ccc21 [Example 79, 5-({3-[3-benzyl-8-(trifluoromethyl)quinolin-4-yl]benzyl}amino)-1-methyl-1H-indole-3-carboxylic acid] | 3 | 629 | 1820
Cc1cc(C(=O)O)c(C)cc1NCc1cccc(-c2c(Cc3ccccc3)cnc3c(C(F)(F)F)cccc23)c1 [Example 12, 4-({3-[3-Benzyl-8-(trifluoromethyl)quinolin-4-yl]benzyl}amino)-2,5-dimethylbenzoic acid] | 11 | 12 | 132
O=C(O)[C@@H]1CCCN1C(=O)c1ccc(COc2cccc(-c3c(Cc4ccccc4)cnc4c(C(F)(F)F)cccc34)c2)cc1 [Example 54, 1-[4-({3-[3-benzyl-8-(trifluoromethyl)quinolin-4-yl]phenoxy}methyl)benzoyl]proline] | 5 | 62 | 321
Cc1cc(NCc2ccsc2-c2c(Cc3ccccc3)cnc3c(C(F)(F)F)cccc23)c(C)cc1CC(=O)O [Example 32, {4-[({2-[3-benzyl-8-(trifluoromethyl)quinolin-4-yl]-3-thienyl}methyl)amino]-2,5-dimethylphenyl}acetic acid] | 8 | 427 | 3330
O=C(O)c1cc(Cl)c(OCc2cccc(-c3c(Cc4ccccc4)cnc4c(C(F)(F)F)cccc34)c2)c(Cl)c1 [Example 67, 4-({3-[3-benzyl-8-(trifluoromethyl)quinolin-4-yl]benzyl}oxy)-3,5-dichlorobenzoic acid] | 4 | 47 | 203
O=C(O)c1ccc(OCc2cccc(-c3c(Cc4ccccc4)cnc4c(C(F)(F)F)cccc34)c2)c(Cl)c1 [Example 85, 4-({3-[3-benzyl-8-(trifluoromethyl)quinolin-4-yl]benzyl}oxy)-3-chlorobenzoic acid] | 3 | 359 | 966
Cc1cc(CC(=O)O)cc(NCc2cccc(-c3c(C)cnc4c(C(F)(F)F)cccc34)c2)c1C [Example 88, [3,4-dimethyl-5-({3-[3-methyl-8-(trifluoromethyl)quinolin-4-yl]benzyl}amino)phenyl]acetic acid] | 2 | 12700 | 31600
O=C(O)c1cc(F)ccc1NCc1cccc(-c2c(Cc3ccccc3)cnc3c(C(F)(F)F)cccc23)c1 [Example 112, 2-({3-[3-benzyl-8-(trifluoromethyl)quinolin-4-yl]benzyl}amino)-5-fluorobenzoic acid] | 1 | 464 | 517
O=C(O)c1cc(Br)cc(Oc2cccc(-c3c(Cc4ccccc4)cnc4c(Cl)cccc34)c2)c1 [Example 122, 3-[3-(3-Benzyl-8-chloroquinolin-4-yl)phenoxy]-5-bromobenzoic acid] | 2 | 772 | 1510
Cc1cc(NCc2cccc(-c3c(C)cnc4c(C(F)(F)F)cccc34)c2)c(C)cc1CC(=O)O [Example 7, [2,5-Dimethyl-4-({3-[3-methyl-8-(trifluoromethyl)quinolin-4-yl]-benzyl}amino)phenyl]acetic acid] | 24 | 9 | 223
O=C(O)c1cccc(-c2cccc(-c3c(Cc4ccccc4)cnc4c(C(F)(F)F)cccc34)c2)c1 [Example 130, 3′-[3-Benzyl-8-(trifluoromethyl)quinolin-4-yl]biphenyl-3-carboxylic acid] |  | 2380 | 1320
